Assay results as given in patent publication US10266549B2, “ULK1 inhibitors and methods using same” (SALK INSTITUTE FOR BIOLOGICAL STUDIES, priority 2014, dated 2019).

What follows are compounds tested against ULK1 (Homo sapiens (Human), UniProt O75385) (assay: ULK1 inhibition assay (Table 1)). Conditions: * = tested as a mixture of regioisomers.
Type: biochemical

Sequence of ULK1 (O75385 whole entry, species assumed): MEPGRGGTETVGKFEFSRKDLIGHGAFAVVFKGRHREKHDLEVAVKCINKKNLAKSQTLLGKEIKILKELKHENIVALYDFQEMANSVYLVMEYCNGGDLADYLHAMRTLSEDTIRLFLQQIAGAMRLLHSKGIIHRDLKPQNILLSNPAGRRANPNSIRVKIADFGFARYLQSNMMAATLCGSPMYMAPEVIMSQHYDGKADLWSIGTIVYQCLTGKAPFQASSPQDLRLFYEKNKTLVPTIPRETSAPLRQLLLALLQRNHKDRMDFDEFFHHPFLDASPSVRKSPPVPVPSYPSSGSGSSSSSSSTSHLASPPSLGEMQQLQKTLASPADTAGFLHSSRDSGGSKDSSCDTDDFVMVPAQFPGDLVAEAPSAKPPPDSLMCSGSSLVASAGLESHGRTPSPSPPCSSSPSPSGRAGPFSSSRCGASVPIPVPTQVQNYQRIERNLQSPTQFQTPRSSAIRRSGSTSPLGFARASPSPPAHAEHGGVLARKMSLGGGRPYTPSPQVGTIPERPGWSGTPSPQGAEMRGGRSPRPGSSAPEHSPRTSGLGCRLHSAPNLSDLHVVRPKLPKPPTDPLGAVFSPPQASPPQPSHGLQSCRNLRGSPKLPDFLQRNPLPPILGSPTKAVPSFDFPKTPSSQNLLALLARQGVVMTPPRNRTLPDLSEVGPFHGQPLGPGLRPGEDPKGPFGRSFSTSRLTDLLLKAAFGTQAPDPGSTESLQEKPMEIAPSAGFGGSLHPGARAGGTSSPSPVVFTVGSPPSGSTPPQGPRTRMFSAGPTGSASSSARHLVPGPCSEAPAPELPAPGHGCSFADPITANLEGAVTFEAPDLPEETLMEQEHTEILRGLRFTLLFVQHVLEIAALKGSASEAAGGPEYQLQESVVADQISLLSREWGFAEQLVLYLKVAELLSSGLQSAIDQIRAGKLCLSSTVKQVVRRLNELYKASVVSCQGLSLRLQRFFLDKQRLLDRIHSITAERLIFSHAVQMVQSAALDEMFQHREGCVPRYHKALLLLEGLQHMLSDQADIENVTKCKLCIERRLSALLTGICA

Question: How did the IC50 turn out when `Cc1ccc(Nc2nc(Nc3ccc4c(c3)CCC(=O)N4)ncc2C(F)(F)F)cc1C` [compound 125, 6-((4-((3,4-dimethylphenyl)amino)-5-(trifluoromethyl)pyrimidin-2-yl)amino)-3,4-dihydroquinolin-2(1H)-one] was run?
Answer: < 200 nM

Question: With `CNC(=O)c1ccccc1Nc1nc(Nc2cc(N3CCOCC3)cc(N3CCOCC3)c2)ncc1Cl` [compound 78, 2-(5-Chloro-2-(3,5-dimorpholinophenylamino)pyrimidin-4-ylamino)-N-methylbenzamide] as the compound, how does the IC50 read?
Answer: 200 to 2000 nM

Question: How did the IC50 turn out when `CNC(=O)c1ccccc1Nc1ccnc(Nc2cc(OC)c(OC)c(OC)c2)n1` [compound 60, N-Methyl-2-(2-(3,4,5-trimethoxyphenylamino)pyrimidin-4-ylamino)benzamide] was run?
Answer: < 200 nM

Question: How did the IC50 turn out when `O=C1CCc2cc(Nc3ncc(C(F)(F)F)c(Nc4nccs4)n3)ccc2N1` [compound 58, 6-(4-(Thiazol-2-ylamino)-5-(trifluoromethyl)pyrimidin-2-ylamino)-3,4-dihydroquinolin-2(1H)-one] was run?
Answer: > 2000 nM

Question: With `Clc1cnc(Nc2ccccc2)nc1Nc1ccccc1` [compound 114, 5-chloro-N^2,N^4-diphenylpyrimidine-2,4-diamine] as the compound, how does the IC50 read?
Answer: > 2000 nM

Question: Which IC50 does the source give for `FC(F)(F)c1cnc(NC2Cc3ccccc3C2)nc1Nc1ccc2c(c1)OCO2` [163a, N^4-(benzo[d][1,3]dioxol-5-yl)-N^2-(2,3-dihydro-1H-inden-2-yl)-5-(trifluoromethyl)pyrimidine-2,4-diamine] here?
Answer: > 2000 nM

Question: Which IC50 does the source give for `COc1cccc(Nc2ncc(C(F)(F)F)c(O)n2)c1OC` [115b, 2-((2,3-dimethoxyphenyl)amino)-5-(trifluoromethyl)pyrimidin-4-ol] here?
Answer: > 2000 nM

Question: Which IC50 does the source give for `O=C1CCc2cc(Nc3nc(Nc4ccc5c(c4)OC(F)(F)O5)ncc3C(F)(F)F)ccc2N1` [178b, 6-((2-((2,2-difluorobenzo[d][1,3]dioxol-5-yl)amino)-5-(trifluoromethyl)pyrimidin-4-yl)amino)-3,4-dihydroquinolin-2(1H)-one] here?
Answer: < 200 nM

Question: With `CS(=O)(=O)c1cccc(CNc2nc(Nc3ccc4c(c3)CC(=O)N4)ncc2C(F)(F)F)c1` [compound 33, 5-((4-((3-(Methylsulfonyl)benzyl)amino)-5-(trifluoromethyl)pyrimidin-2-yl)amino)indolin-2-one] as the compound, how does the IC50 read?
Answer: 200 to 2000 nM

Question: With `CS(=O)(=O)c1cccc(CNc2nc(Nc3ccc4c(c3)CCC(=O)N4)ncc2C(F)(F)F)c1` [compound 32, 6-(4-(3-(Methylsulfonyl)benzylamino)-5-(trifluoromethyl)pyrimidin-2-ylamino)-3,4-dihydroquinolin-2(1H)-one] as the compound, how does the IC50 read?
Answer: 200 to 2000 nM

Question: For `CNC(=O)c1ccccc1Nc1nc(Nc2cc(OC)c(OC)c(OC)c2)ncc1C(F)(F)F` [compound 36, N-Methyl-2-(5-(trifluoromethyl)-2-(3,4,5-trimethoxyphenylamino)pyrimidin-4-ylamino)benzamide], which IC50 is on record?
Answer: > 2000 nM

Question: Which IC50 does the source give for `COc1ccc(Nc2nc(Nc3ccc(N4CCOCC4)cc3OC)ncc2Br)cn1` [compound 28, 5-Bromo-N^2-(2-methoxy-4-morpholinophenyl)-N^4-(6-methoxypyridin-3-yl)pyrimidine-2,4-diamine] here?
Answer: 200 to 2000 nM

Question: For `CNC(=O)c1ccccc1Nc1nc(Nc2ccc3c(c2)OCO3)ncc1Cl` [compound 49, 2-(2-(Benzo[d][1,3]dioxol-5-ylamino)-5-chloropyrimidin-4-ylamino)-N-methylbenzamide], which IC50 is on record?
Answer: < 200 nM

Question: Which IC50 does the source give for `COc1ccc(Nc2nc(Nc3ccc(N4CCOCC4)cc3OC)ncc2C(F)(F)F)cn1` [compound 40, N^2-(2-methoxy-4-morpholinophenyl)-N^4-(6-methoxypyridin-3-yl)-5-(trifluoromethyl)pyrimidine-2,4-diamine] here?
Answer: > 2000 nM

Question: For `CNC(=O)c1ccccc1Oc1nc(Nc2ccc(C)c(C)c2)ncc1C(F)(F)F` [compound 106, 2-((2-((3,4-dimethylphenyl)amino)-5-(trifluoromethyl)pyrimidin-4-yl)oxy)-N-methylbenzamide], which IC50 is on record?
Answer: 200 to 2000 nM

Question: For `O=C1CCc2cc(Nc3ncc(C(F)(F)F)c(OC4CCC4)n3)ccc2N1` [compound 175, 6-((4-cyclobutoxy-5-(trifluoromethyl)pyrimidin-2-yl)amino)-3,4-dihydroquinolin-2(1H)-one], which IC50 is on record?
Answer: < 200 nM
